# Values joined by “and” are separate entries in the source; they are usually repeats but may differ in a detail not shown here. Equal entries are not always repeated. “Also recorded” adds a separate entry of the source. Where two headings read alike, the source gives them in different places.
# Assays:
# [1] = tested on: S. mutans; assay type: cell-based, Streptococcus mutans
# [2] = tested on: S. mutans UA159; experiment: In vitro static biofilm inhibition assay (crystal violet), incl. dose response study; assay type: cell-based, Streptococcus mutans
# [3] = tested on: S. sobrinus 6715; experiment: In vitro static biofilm inhibition assay (crystal violet); assay type: cell-based, Streptococcus sobrinus; conditions: 125 μM; for inhibition of biofilm formation of S. sobrinus 6715: BHI 1% sucrose, 20 h
# [4] = tested on: all strains of bacteria tested; design: key to the marks not given beside the values; conditions: 1 mM-metal
# Description: Tooth application may involve exposure to bacteria outside the oral cavity, including the skin and digestive system. CAN, CAS and AgNO3 (1 mM-metal) were tested for their effect on in vitro planktonic growth of bacteria under the conditions listed in FIG. 9.
# [5] = tested on: human telomerase immortalized gingival keratinocytes; conditions: 24 h incubation, DermaLife K keratinocyte culture media, MTS assay
# [6] = tested on: S. mutans; conditions: 500 μM, 6 h on 6 h-grown biofilm
# Description: (§1) Potential mechanisms of biofilm inhibition by CeO2-NP were first explored by testing the effect of CAS and CAN on planktonic growth (FIG. 8). […] To further explore potential extracellular mechanisms of biofilm inhibition, dispersal assays were carried out on existing S. mutans and S. sobrinus biofilms grown statically for 6 h as described above (96-well plate, BHI, 1% sucrose). After 6 h, the planktonic cells were removed, the adherent biofilm rinsed (0.9% NaCl) and replaced with fresh 200 μL BHI (positive control) or BHI/500 μM CAS (test wells). All wells were allowed to incubate an additional 6 h after which the adherent biofilm was washed, stained and quantified via UV-Vis analysis (37). Biofilm dispersal was calculated similar to inhibition in Equation I via UV-Vis.
# [7] = tested on: S. sobrinus; conditions: 500 μM, 6 h on 6 h-grown biofilm
# Description: as §1
compound,measurement,setting,value
"N.N.O=S(=O)(O)O [(NH4)2SO4, ammonium sulfate, reference compound]",activity in limiting planktonic growth,[1],not active
"O=[N+]([O-])[O-].[Ag+] [AgNO3, Silver Nitrate, reference compound]",effect on S. mutans biofilm formation (in words),[2],slight increase in biofilm growth
same,effect on biofilm growth of S. sobrinus (in words),[3],incapable of limiting biofilm growth
"N.N.O=[N+]([O-])O.O=[N+]([O-])O.O=[N+]([O-])[O-].O=[N+]([O-])[O-].O=[N+]([O-])[O-].O=[N+]([O-])[O-].[Ce+4] [CAN, ceric ammonium nitrate]",IC50,[2]; read-out: 50% inhibitory concentration (IC50) of biofilm formation,137 µM
"O=[N+]([O-])[O-].O=[N+]([O-])[O-].O=[N+]([O-])[O-].O=[N+]([O-])[O-].O=[N+]([O-])[O-].O=[N+]([O-])[O-].[Ce+4].[NH4+].[NH4+] [CAN, ceric ammonium nitrate]",inhibition of S. mutans biofilm growth,[2]; 125 µM,51% and ~40%
same,inhibition of biofilm formation of S. sobrinus 6715,[3],44%
same,effect on planktonic growth of S. mutans,[1],did not inhibit; also recorded: slight growth lag; also recorded: slight lagging effect; also recorded: Non-inhibitory effect
same,visible in vitro planktonic growth of bacteria,[4],++
same,toxicity on gingival keratinocytes as compared to AgNO3,[5],reduced toxicity
"O=[N+]([O-])[O-].O=[N+]([O-])[O-].O=[N+]([O-])[O-].[Ce+3] [Ce(NO3)3, Cerium (III) nitrate, reference compound]",effect on S. mutans biofilm formation (in words),[2],slight increase in biofilm growth; also recorded: inactive
same,effect on biofilm growth of S. sobrinus (in words),[3],incapable of limiting biofilm growth
"O=S(=O)([O-])[O-].[Zn+2] [ZnSO4, reference compound]",effect on S. mutans biofilm formation (in words),"[2]; 125 μM (metal ion/Ce), BHI 1% sucrose, 37° C., 5% CO2, 20 h",slight increase in biofilm growth
same,effect on biofilm growth of S. sobrinus (in words),[3],incapable of limiting biofilm growth
ceric ammonium sulfate [CAS],inhibition of S. mutans biofilm growth,[2]; 125 μM,40%
same,inhibition of biofilm formation of S. sobrinus 6715,[3],35%
same,effect on planktonic growth of S. mutans,[1],did not inhibit; also recorded: non-significant growth effect; also recorded: Non-inhibitory effect
same,"biofilm dispersal, S. mutans",[6],6%
same,"biofilm dispersal, S. sobrinus",[7],8%
same,visible in vitro planktonic growth of bacteria,[4],++
same,toxicity on gingival keratinocytes as compared to AgNO3,[5],reduced toxicity

# — patent publication US10835556B2, “Hydrolyzed tetravalent metal salts and methods of biofilm inhibition” (THE BOARD OF TRUSTEES OF THE UNIVERSITY OF ILLINOIS, priority 2018, dated 2020)
